According to the CheMixHub viscosity set:

Experiment: xn = mol fraction of the nth substance listed

CO + O
Details | viscosity [mPa·s]
303.15 K, 101.3 kPa, x2 = 0.5 | 1.177
303.15 K, 101.3 kPa, x2 = 0.5599 | 1.263
303.15 K, 101.3 kPa, x2 = 0.6148 | 1.306
303.15 K, 101.3 kPa, x2 = 0.7 | 1.39
303.15 K, 101.3 kPa, x2 = 0.7982 | 1.308
303.15 K, 101.3 kPa, x2 = 0.8 | 1.361
303.15 K, 101.3 kPa, x2 = 0.85 | 1.284
303.15 K, 101.3 kPa, x2 = 0.9043 | 1.108
303.15 K, 101.3 kPa, x2 = 0.95 | 0.999
303.15 K, 101.33 kPa, x2 = 0.1232 | 0.625
303.15 K, 101.33 kPa, x2 = 0.1599 | 0.679
303.15 K, 101.33 kPa, x2 = 0.2168 | 0.765
303.15 K, 101.33 kPa, x2 = 0.2992 | 0.874
303.15 K, 101.33 kPa, x2 = 0.3639 | 0.972
303.15 K, 101.33 kPa, x2 = 0.3948 | 1.021
303.15 K, 101.33 kPa, x2 = 0.4567 | 1.129
303.15 K, 101.33 kPa, x2 = 0.5837 | 1.31
303.15 K, 101.33 kPa, x2 = 0.8272 | 1.319
303.15 K, 101.33 kPa, x2 = 0.8782 | 1.213
303.15 K, 101.33 kPa, x2 = 0.886 | 1.185
303.15 K, 101.33 kPa, x2 = 0.9125 | 1.11
308.15 K, 101 kPa, x1 = 0.125 | 1.07
308.15 K, 101 kPa, x1 = 0.274 | 1.22
308.15 K, 101 kPa, x1 = 0.465 | 1.08
308.15 K, 101 kPa, x1 = 0.702 | 0.834
308.15 K, 101 kPa, x2 = 0.9413 | 0.9361
308.15 K, 101.3 kPa, x1 = 0.0588 | 0.894
308.15 K, 101.3 kPa, x1 = 0.1233 | 1.062
308.15 K, 101.3 kPa, x1 = 0.1943 | 1.172
308.15 K, 101.3 kPa, x1 = 0.2727 | 1.213
308.15 K, 101.3 kPa, x1 = 0.3599 | 1.18
313.15 K, 101 kPa, x1 = 0.055 | 0.78
313.15 K, 101 kPa, x1 = 0.129 | 0.974
313.15 K, 101 kPa, x1 = 0.176 | 1.021
313.15 K, 101 kPa, x1 = 0.232 | 1.078
313.15 K, 101 kPa, x1 = 0.256 | 1.067
313.15 K, 101 kPa, x1 = 0.487 | 0.973
313.15 K, 101 kPa, x1 = 0.541 | 0.911
313.15 K, 101 kPa, x1 = 0.625 | 0.815
313.15 K, 101 kPa, x1 = 0.642 | 0.807
313.15 K, 101 kPa, x1 = 0.903 | 0.545
313.15 K, 101.3 kPa, x2 = 0.0969 | 0.544
313.15 K, 101.3 kPa, x2 = 0.2006 | 0.643
313.15 K, 101.3 kPa, x2 = 0.3002 | 0.749
313.15 K, 101.3 kPa, x2 = 0.4001 | 0.861
313.15 K, 101.3 kPa, x2 = 0.5 | 0.945
313.15 K, 101.3 kPa, x2 = 0.6 | 1.022
313.15 K, 101.3 kPa, x2 = 0.7 | 1.091
313.15 K, 101.3 kPa, x2 = 0.8 | 1.054
313.15 K, 101.3 kPa, x2 = 0.85 | 0.995
313.15 K, 101.3 kPa, x2 = 0.9 | 0.907
313.15 K, 101.3 kPa, x2 = 0.95 | 0.788
318.15 K, 101 kPa, x1 = 0.125 | 0.832
318.15 K, 101 kPa, x1 = 0.274 | 0.952
318.15 K, 101 kPa, x1 = 0.465 | 0.868
318.15 K, 101 kPa, x1 = 0.702 | 0.69
318.15 K, 101 kPa, x2 = 0.9413 | 0.8181
323.15 K, 100 kPa, x1 = 0.2 | 0.832
323.15 K, 100 kPa, x1 = 0.3 | 0.86
323.15 K, 100 kPa, x1 = 0.4 | 0.848
323.15 K, 101 kPa, x1 = 0.055 | 0.64
323.15 K, 101 kPa, x1 = 0.129 | 0.785
323.15 K, 101 kPa, x1 = 0.176 | 0.818
323.15 K, 101 kPa, x1 = 0.232 | 0.857
323.15 K, 101 kPa, x1 = 0.256 | 0.849
323.15 K, 101 kPa, x1 = 0.487 | 0.796
323.15 K, 101 kPa, x1 = 0.541 | 0.746
323.15 K, 101 kPa, x1 = 0.625 | 0.678
323.15 K, 101 kPa, x1 = 0.642 | 0.673
323.15 K, 101 kPa, x1 = 0.903 | 0.475
323.15 K, 101.3 kPa, x1 = 0.9144 | 0.458
323.15 K, 101.3 kPa, x2 = 0.0969 | 0.47
323.15 K, 101.3 kPa, x2 = 0.2006 | 0.547
323.15 K, 101.3 kPa, x2 = 0.3002 | 0.628
323.15 K, 101.3 kPa, x2 = 0.4001 | 0.71
323.15 K, 101.3 kPa, x2 = 0.5 | 0.774
323.15 K, 101.3 kPa, x2 = 0.6 | 0.826
323.15 K, 101.3 kPa, x2 = 0.7 | 0.86
323.15 K, 101.3 kPa, x2 = 0.8 | 0.84
323.15 K, 101.3 kPa, x2 = 0.85 | 0.796
323.15 K, 101.3 kPa, x2 = 0.95 | 0.647
